Where a SMILES comes first, the peptide text is derived from it. Where no end group is shown, it is not given here. [ ]: non-standard residue; d: D form. Ahx = NCCCCCC(=O)O
Assays:
[1] = Solubility of test peptides (Table 1; PBSA); conditions: for Soluble: Table 1
Protocol: (§4) The solubility and aggregation properties of the test peptides were assessed by visual observation, analytical ultracentrifugation, and/or dynamic light scattering.

[2] = test system: Aβ; conditions: literature, cited from earlier work
[3] = test system: Aβ toxicity; conditions: literature; cited from earlier work
[4] = test system: PC-12 cells; test: Cellular toxicity (MTT assay): protection from Aβ(1-39) toxicity; type: cell-based; conditions: both molar ratios tested (2:1 and 1:1)
Protocol: (§1) Solutions of recognition or hybrid peptides were prepared by direct dissolution of lyophilized peptide into sterile PBS (with antibiotics). Aβ(1-39) was dissolved in 0.1% TFA at 10 mg/ml, then diluted twenty-fold into sterile PBS (with antibiotics) or PBS containing the hybrid or recognition peptides. Solutions were prepared at 2:1 or 1:1 peptide:Aβ molar ratio. The samples were incubated at room temperature for 7 days, then diluted five-fold with medium and incubated for one day. As a control, PBS was diluted 5:1 with medium and added to some wells.
Freshly-prepared solutions of Aβ(1-39) were not toxic to the cells, consistent with other reports in the literature (Shearman, et al., supra). None of the test peptides alone were toxic. […] FIG. 4 graphs the effect of recognition and hybrid peptides on Aβ toxicity. Aβ(0.5 mg/ml) was incubated with the recognition peptide at a 1:2 Aβ:peptide molar ratio (A), or with the hybrid peptides at a 1:1 or 1:2 Aβ:peptide molar ratio (B), for one week, following which the solution was diluted five-fold and added to monolayer cultures of PC-12 cells. Cell viability was assessed with the MTT assay; results are reported relative to untreated wells. […] The ability of each peptide to protect cells from Aβ toxicity was assessed by a upper-tailed t-test; *, p<0.01; **, p<0.001.

[5] = Circular dichroism spectroscopy, secondary structure of peptide alone; type: physicochemical; conditions: phosphate buffer (0.1 M, pH 7.4)
Protocol: (§2) β(1-39), 15-25-K6, or a mixture of β(1-39) and 15-25-K6 (1:2 molar ratio) were dissolved in 0.01 M phosphate buffer, pH 7.2. The final concentration was 0.5 mg/ml for each peptide. The solution was passed through a 0.45 μm Millipore (Bedford, Mass.) filter to remove dust and then degassed. Circular dichroism spectra in the far UV (190-240 nm) were obtained using a modified Cary Model 60 spectropolarimeter (On-line Instrument Systems, Bogart, Calif.) and analyzed for secondary structure as described (Shen, C.-L., et al., Biophys. J. 65:2383-2395, 1993).
(§3) Circular dichroism spectra of Aβ(1-39) and 15-25-K6 in phosphate buffer (0.1 M. pH 7.4) were collected and quantitatively analyzed for secondary structure. Aβ(1-39) was 65% β-sheet and 30% random coil (spectra not shown), in line with previous measurements (Shen, C.-L., et al., supra, 1994). The secondary structure of 15-25-K6 was essentially the same (64% Aβ-sheet, 36% random coil, data not shown).

[6] = biological target: T1, Aβ(25-35) (Homo sapiens, UniProt P05067); test: ThT fluorescence spectroscopy with Aβ(25-35); type: biochemical; conditions: mixed with Aβ(25-35)
T1 construct: A peptide homologous to the 25-35 residues of Aβ, Aβ(25-35), was purchased from Sigma; purchased Sigma (St. Louis, Mo.)

[7] = biological target: T2, Aβ(1-39) (Homo sapiens, UniProt P05067); test: Circular dichroism spectroscopy, effect of peptide on Aβ(1-39) spectra; type: biochemical; conditions: Aβ(1-39):peptide 1:2 molar ratio
T2 construct: A peptide homologous to the first 39 residues of Aβ, Aβ(1-39), was purchased from AnaSpec, Inc; purchased AnaSpec, Inc. (San Jose, Calif.)
Protocol: as §2, §3

[8] = test system: PC-12 cells; test: Cellular toxicity (MTT assay): effect on Aβ(25-35) toxicity; type: cell-based; conditions: co-incubation with Aβ(25-35)
Protocol: as §1
15-25-K6 shares essentially no homology with Aβ(25-35), which also forms fibrillar aggregates and is toxic to cells. Aβ(25-35) decreased MTT reduction to 45% of controls; co-incubation of 15-25-K6 with Aβ(25-35) had no effect on the toxicity of Aβ(25-35).

[9] = biological target: T2, Aβ(1-39); test: Electron microscopy of Aβ(1-39) fibrils; type: biochemical; conditions: aged approximately one week
Protocol: Solutions of Aβ(1-39) alone (0.5 mg/ml) or with 1 mg/ml 15-25-K6 were prepared as described above and aged at room temperature for approximately one week. A drop of the peptide solution was placed on a Pioloform coated 300 mesh electron microscope copper grid. After blotting, a drop of 1% ammonium molybdate was placed on the grid while being held with fine forceps. The grid was blotted on filter paper and allowed to dry before observing the specimen in a JEOL (Peabody, Mass.) 100 CX Electron Microscope at 60 kV. To further examine the aggregates, electron micrographs were taken. FIG. 3A and B are electron micrographs of (A) Aβ(1-39) alone and (B) Aβ(1-39) with 15-25-K6. Magnification is 72,500x.

[10] = biological target: T2, Aβ(1-39); test: Dynamic light scattering, Aβ(1-39) aggregation kinetics; type: biochemical; conditions: Aβ 0.5 mg/ml, peptide:Aβ molar ratio 2:1
Protocol: Lyophilized Aβ(1-39) was solubilized in 0.1% TFA at 10 mg/ml, then diluted twenty-fold into PBSA or into PBSA containing the test peptide. PBSA was double-filtered through a 0.22 μm filter prior to use. pH was adjusted to 7.4 with 0.5 N NaOH, then the sample was immediately filtered through a 0.45 μm filter directly into a clean light scattering cuvette. In all cases Aβ(1-39) concentration was 0.5 mg/ml and the molar ratio of test peptide to Aβ was 2:1 unless otherwise indicated. Autocorrelation functions at 90° scattering angle were collected as described previously (Shen, et al., 1994, supra). Data were fit using the method of cumulants to derive and apparent hydrodynamic radius.
The effect of the test peptides on aggregation kinetics of Aβ(1-39) was assessed by dynamic light scattering (FIG. 1). FIG. 1 graphs the effect of recognition and hybrid peptides on Aβ aggregation kinetics. Final Aβ concentration was 0.5 mg/ml, Aβ:peptide molar ratio was 1:2 except where indicated. The hydrodynamic radius (measured at a 90° scattering angle) was measured as a function of time.

[11] = biological target: T2, Aβ(1-39); test: ThT fluorescence spectroscopy with Aβ(1-39); type: biochemical; conditions: one week incubation at room temperature
Protocol: A few samples used for cellular toxicity assays were tested for ThT fluorescence after one week aging and prior to dilution into cell culture medium. ThT (Sigma, St. Louis, Mo.) was dissolved at 100 μM in PBSA. Forty μl peptide solution and 40 μl ThT stock solution were mixed with 920 μl PBSA and briefly vortexed. Fluorescence emission spectra were taken using a Model M-3 Alphascan (Photon Technology International, South Brunswick, N.J.) spectrofluorimeter, with excitation at 450 nm. An increase in fluorescence with a maximum at 482 nm is indicative of amyloid (LeVine, H. Protein Sci. 2:404-410, 1993). Fluorescence intensity for diluted ThT in the absence of peptide was determined and subtracted from sample intensities. ThT fluorescence intensity was measured for Aβ-amyloid(1-39) alone or mixed with 18-25 or 15-25-K6 after one week incubation at room temperature. Samples were diluted 25-fold just prior to measurement. […] Because 16-25 was not soluble in PBS, the assay could not be repeated in a like manner for that peptide; however, a parallel experiment was conducted by dissolution of 16-25 or 18-25 into 35% ACN/TFA followed by mixing with Aβ(1-39) and dilution into PBS.

[12] = Self-aggregation of test peptides alone (sedimentation equilibrium ultracentrifugation, dynamic light scattering, visual observation); type: physicochemical; conditions: peptide alone
Protocol: as §4

[13] = biological target: T2, Aβ(1-39); test: Static light scattering, Aβ(1-39) aggregate molecular weight and morphology (Kratky plot); type: biochemical; conditions: peptide:Aβ 2:1 (16-20-K6 1:2)
Protocol: Solutions of Aβ(1-39) alone or with test peptide at a 2:1 peptide:Aβ molar ratio were prepared as described above. Solutions were incubated at room temperature for 24 hours, after which scattered intensity data as a function of angle were collected and analyzed as described elsewhere (Shen, C.-L. and Murphy, Biophys. J., 1995, supra).
The effect of the test peptide on aggregate size and morphology was probed with static light scattering. […] Thus, the average molecular weight of Aβ(1-39) aggregates was not dramatically affected by any of the peptides tested.
A convenient tool for abstracting particle shape information from angular dependence data is the so-called Kratky plot. FIGS. 2A and B are Kratky plots of Aβ-peptide solutions. Aβ(1-39) was co-incubated with recognition (A) or hybrid (B) peptides for 24 hours, after which SLS data were collected, analyzed, and plotted as Kratky plots. In all cases, Aβ(1-39) concentration was 0.5 mg/ml and the peptide:Aβ molar ratio was 2:1, except for 16-20-K6 for which the molar ratio was lowered to 1:2. In FIG. 2, q is the scattering vector, which is related to the scattering angle, R is the Rayleigh ratio, a function of the scattering intensity, c is the concentration, and K is an instrument constant. Referring to FIG. 2A, the rising curves with an intermediate plateau are characteristic of semiflexible linear chains. […]

[14] = biological target: Aβ (Homo sapiens, UniProt P05067); conditions: literature; cited from earlier work
Aβ (Homo sapiens, UniProt P05067), sequence (P05067 672-711 limits assumed): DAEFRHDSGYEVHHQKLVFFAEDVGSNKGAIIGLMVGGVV

T2 sequence (P05067 672-710): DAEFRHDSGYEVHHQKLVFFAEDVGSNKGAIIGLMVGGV

Q: Which Soluble [1] does the source give for `CC(C)C[C@H](NC(=O)[C@@H](N)CCCCN)C(=O)N[C@H](C(=O)N[C@@H](Cc1ccccc1)C(=O)O)C(C)C` [16-19, KLVF] (H-KLVF-OH) here?
A: Its Soluble is “yes”.

Q: Which Soluble [1] does the source give for `CC(C)C[C@H](NC(=O)[C@@H](N)CCCCN)C(=O)N[C@H](C(=O)N[C@@H](Cc1ccccc1)C(=O)N[C@@H](Cc1ccccc1)C(=O)O)C(C)C` [16-20, KLVFF] here?
A: Its Soluble is “yes”.

Q: Which results are given for `Nc1c(/N=N/c2ccc(-c3ccc(/N=N/c4cc(S(=O)(=O)O)c5ccccc5c4N)cc3)cc2)cc(S(=O)(=O)O)c2ccccc12` [Congo red]?
A: effect on Aβ aggregation / fibril formation [2]: disrupt Aβ aggregation; effect on Aβ toxicity [3]: reduce Aβ toxicity

Q: For `CCCCCCCCCCCCCCCC[N+]1(C)CCCCC1.[Br-]` [hexadecyl-N-methylpiperidinium bromide], which “effect on Aβ aggregation / fibril formation” value [2] is on record?
A: Its value is “inhibits Aβ fibril formation”.

Q: For `OC[C@H]1O[C@@H]2O[C@H]3[C@H](O)[C@@H](O)[C@@H](O[C@H]4[C@H](O)[C@@H](O)[C@@H](O[C@H]5[C@H](O)[C@@H](O)[C@@H](O[C@H]6[C@H](O)[C@@H](O)[C@@H](O[C@H]7[C@H](O)[C@@H](O)[C@@H](O[C@H]8[C@H](O)[C@@H](O)[C@@H](O[C@H]1[C@H](O)[C@H]2O)O[C@@H]8CO)O[C@@H]7CO)O[C@@H]6CO)O[C@@H]5CO)O[C@@H]4CO)O[C@@H]3CO` [β-Cyclodextrin], which “effect on Aβ toxicity” value [3] is on record?
A: The value was “partially reduces Aβ toxicity”.

Q: For FAEDVG [20-25, FAEDVG], which Soluble [1] is on record?
A: The Soluble was “yes”.

Q: With FAEDVGKKKKKK [20-25-K6, FAEDVGKKKKKK] as the compound, how does the “solubility in PBSA” value [1] read?
A: The value was “readily soluble”.

Q: And the Soluble [1]?
A: The Soluble was “yes”.

Q: Which Soluble [1] does the source give for FFAEDVG [19-25, FFAEDVG] here?
A: Its Soluble is “yes”.

Q: For “GQKLVFFAEDVGGaKKKKKK (GQKLVFFAEDVGG[Ahx]KKKKKK) [15-25-K6]”, which “protection against Aβ(1-39) toxicity” value [4] is on record?
A: The value was “intermediate in protective effect”.

Q: What about the random coil content [5] of the same compound?
A: Its random coil content is 36%.

Q: And the β-sheet content [5]?
A: The β-sheet content was 64%.

Q: What about the “effect on ThT fluorescence of Aβ(25-35)” value [6] of the same compound?
A: Its value is “neither a positive nor a negative effect”.

Q: What about the “effect on circular dichroism spectra of Aβ(1-39)” value [7] of the same compound?
A: Its value is “did not significantly alter”.

Q: And the “effect on toxicity of Aβ(25-35)” value [8]?
A: The value was “no effect”.

Q: What about the “effect on Aβ(1-39) fibril morphology (electron micrographs)” value [9] of the same compound?
A: The value was “did not prevent fibril formation but did appear to reduce the average length of fibrils, and increase the extent of fibril entanglement”.

Q: And the “effect on Aβ aggregate size / growth rate (hydrodynamic radius vs time)” value [10]?
A: Its value is “dramatic increase”.

Q: And the “effect on ThT fluorescence intensity of Aβ(1-39)” value [11]?
A: The value was “reduced the ThT fluorescence intensity of Aβ(1-39) somewhat”.

Q: What about the “aggregation state by sedimentation equilibrium ultracentrifugation” value [12] of the same compound?
A: Its value is “monomeric”.

Q: And the “increase in molecular weight of Aβ aggregates” value ([13]; 24 hours after mixing)?
A: Its value is 2-2.5 fold.

Q: What about the “effect on Aβ(1-39) aggregate shape / morphology (Kratky plot)” value ([13]; 24 hours co-incubation) of the same compound?
A: The value was “greatest effect on the particle shape”.

Q: With KKLVFFA as the compound, how does the “interaction with Aβ” value [14] read?
A: The value was “interacts with the homologous sequence in Aβ”.

Q: Which results are given for KLVFFKKKKKK [16-20-K6, KLVFFKKKKKK]?
A: solubility in PBSA [1]: readily soluble; Soluble [1]: yes

Q: For “QKLVTTAE [literature octapeptide with substitutions for the two Phe residues at positions 19 and 20]”, which “effect on Aβ fibril formation” value ([2]; 10-fold molar excess, electron microscopy) is on record?
A: Its value is “inhibited fibril formation”.

Q: Which Soluble [1] does the source give for VFFAEDVG [18-25, VFFAEDVG] here?
A: The Soluble was “yes”.

Q: Which Soluble [1] does the source give for VLFKF [16-20S, VLFKF] here?
A: The Soluble was “yes”.
